Test results from US20140335038A1, “METHOD OF STRENGTHENING HAIR FIBRES” (priority 2011, published 2014).

Assay: DSC denaturation peak temperature of treated dark brown hair
Set-up: species or system Human
Conditions: Example 4, 5 treatments, pH 5, 32° C.
Method: DSC measures the denaturation temperature of the α-helical proteins in the microfibrils of the hair fibre. This temperature is influenced by the cross-link density of the surrounding matrix proteins (Wortmann et al., J. Cosmet. Sci., 53, 219-228 (2002)). A higher denaturation peak temperature indicates greater integrity of the fibre. Damage repair was assessed using DSC. A Mettler Toledo DSC1 analyser was used. The hair was shaved, using clippers, into 1-2 mm lengths. Approximately 5 mg of sample was weighed into a pressure resistant (20 bar), stainless steel, large volume pan (120 μL capacity). 50 μL of water was added and the pan was sealed. The samples were then mixed using a rotary mixer and left overnight to allow the water to equilibrate throughout the sample. […] The helix transition temperature was measured. Each sample was measured three times. Selected 2'' hair switches were bleached once using […] […] 4200 μL Britton-Robinson buffer (62.5 mM pH 5; final concentration 50 mM) 600 μl hydrogen peroxide 3% (SBP- or HRP-treated sample and (+)-catechin/H2O2 treated sample) or 600 μL milliQ water (laccase-treated sample and (+)-catechin treated sample) 600 μL (+)-catechin, 100 mg/mL stock in DMSO The reagents listed above were combined in 15 mL Falcon centrifuge tubes. […] Samples were measured three times.

## Oc1cc(O)c2c(c1)O[C@H](c1ccc(O)c(O)c1)[C@@H](O)C2 [(+)-Catechin, (+)-catechin]
Dark brown hair bleached x1
  Denaturation peak temperature: 153.38 +/− 0.43 °C
Unbleached dark brown hair
  Denaturation peak temperature: 151.16 +/− 0.49 °C
